Data reported in US20260224738A1, “MICELLE NANOPARTICLES COMPRISING BIOPOLYMER-HEMIN COMPLEX, AND USE THEREOF” (GWANGJU INSTITUTE OF SCIENCE AND TECHNOLOGY, priority 2023, published 2026).

Tests used:
HK-2 cells = experiment: Cell viability against ROS (200 μM hydrogen peroxide), Alamar Blue; type: cell-based, human
Procedure: HK-2 cells were treated with 200 μM hydrogen peroxide and various concentrations of the biopolymer-hemin complexes. After 24 hours of incubation, cell viability was evaluated using the Alamar Blue assay.
It was confirmed that the biopolymer-hemin complex removes ROS such as hydrogen peroxide and protects cells from oxidative stress (FIG. 4D). The ROS protective effect of the biopolymer-hemin complex was assayed in HK-2 cells with hydrogen peroxide. Various concentrations of hemin and biopolymer-hemin complexes with the same amount of hemin were added to cells treated with hydrogen peroxide (200 μM). The survival rate of cells was improved by increasing the concentration of the biopolymer-hemin complex or hemin.

[1] = test system: AKI mouse model established using glycerol; experiment: Serum analysis (BUN, creatinine) of AKI mice; type: in vivo, ICR mice; conditions: 10 mg/kg intravenous, 24 hours, compared to AKI mice
Procedure: (§1) All animal experiments were performed in accordance with the Gwangju Institute of Science and Technology Animal Care Committee guidelines (GIST-2021-095). Six-week-old ICR mice (30 g) were used, with free access to food and water. To establish an acute kidney injury (AKI) model, water was restricted for 18 hours. Next, 50% glycerol solution (8 mL/kg) was injected intramuscularly into both hind limbs of each mouse.
(§2) After establishing the AKI model, 10 mg/kg of hemin and biopolymer-hemin complex was injected intravenously. Twenty-four hours later, blood was collected for serum urea nitrogen (BUN) and creatinine analysis. Kidneys and other major organs (heart, liver, spleen, and lungs) were also collected for further histological analysis. 1-10. Histological analysis

[2] = test system: AKI mouse model established using glycerol; experiment: Histological analysis of kidneys of AKI mice (H&E, DHE, KIM-1, MAC387); type: in vivo, ICR mice
Procedure: as §1, §2
The kidneys of each group were fixed with 4% formaldehyde, embedded in paraffin, and cut into 5 μm thick sections. H&E staining and TUNEL analysis of kidney sections were performed according to the manufacturer's protocol. For immunostaining of kidney injury molecule-1 (KIM-1) and MAC387, sections were treated with 100-fold diluted KIM-1 and MAC primary antibodies, and 200-fold diluted anti-rabbit IgG (Alexa Fluor 594) and anti-mouse IgG (Alexa Fluor 488) were each used as a secondary antibody. […] Images were analyzed quantitatively using ImageJ software. […]

Hemin
cytoprotective effect against hydrogen peroxide, overall (HK-2 cells; HK-2, 200 μM hydrogen peroxide): no significant difference observed between CS-H and hemin
cell viability against hydrogen peroxide (HK-2 cells; hemin concentration 1 μM, 200 μM hydrogen peroxide): no protective effect at all
protective effect against hydrogen peroxide (HK-2 cells; hemin concentration 5 and 25 μM, 200 μM hydrogen peroxide): improved protective effects
serum BUN level [1]: did not induce significant changes
serum creatinine level [1]: did not induce significant changes
kidney ROS levels (DHE staining) ([2]; AKI mice (FIG. 6D, 6F)): not effective in reducing ROS levels
macrophage signal (MAC387 immunostaining) ([2]; AKI mice kidney): strong macrophage signals
